Experimental data: patent US5106868A, “Epoxycyclohexenone amides with antibacterial activity” (Kyowa Hakko Kogyo Kabushiki Kaisha, priority 1990, dated 1992)
In brackets after ≈: the same amount, converted by molar mass.

Legend:
[1] = system: Bacillus subtilis No. 10707; test: Anti-bacterial activity, minimum inhibitory concentration by agar dilution method; type: cell-based; settings: pH=7.0
Procedure: (§1) Minimum inhibitory concentration (μg/ml) was measured by the agar dilution method using a medium (pH=7.0) which was prepared by dissolving Bactotryptone medium (3 g; commercial product of Difco, U.S.A.), meat extract (3 g), yeast extract (1 g), glucose (1 g) and agar (16 g) in water (1 l).

[2] = system: Candida albicans ATCC 10231; test: as above; type: cell-based; settings: ATCC10231, pH=7.0
Procedure: as §1

[3] = system: Enterococcus faecium ATCC 10541; test: as above; type: cell-based; settings: ATCC10541, pH=7.0
Procedure: as §1

[4] = system: Escherichia coli ATCC 26; test: as above; type: cell-based; settings: ATCC26, pH=7.0
Procedure: as §1

[5] = system: Klebsiella pneumonia ATCC 10031; test: as above; type: cell-based; settings: Klebsiella pneumoniae, ATCC10031, pH=7.0
Procedure: as §1

[6] = system: Pseudomonas aeruginosa Bin H No. 1; test: as above; type: cell-based; settings: pH=7.0
Procedure: as §1

[7] = system: Salmonella typhi ATCC 9992; test: as above; type: cell-based; settings: Salmonella enterica, read-out: Minimum inhibitory concentration
Procedure: as §1

[8] = system: Shigella sonnei ATCC 9290; test: as above; type: cell-based; settings: ATCC9290, pH=7.0
Procedure: as §1

[9] = system: Staphylococcus aureus ATCC 6538P; test: as above; type: cell-based; settings: ATCC6538P, pH=7.0
Procedure: as §1

[10] = system: MCF7 cells (ATCC HTB22); test: Anti-tumour activity, MCF7 cell growth inhibition (neutral red); type: cell-based; settings: Homo sapiens, 72 hours, 37° C., absorptivity at 550 nm
Procedure: MCF7 cells (ATCC HTB22) was add to RPMI-1640 medium (commercial product of Gibco, U.S.A.) containing 10 % fetal calf serum, insulin (10 μg/ml) and estradiol (10^-8 M) (hereinafter referred to as medium A) to prepare a cell suspension containing 4.5×10^4 cell/ml.
On each occasion, 0.1 ml of the suspension was poured into each well of a 96 well microtitre plate and incubated at a temperature of 37° C. for 20 hours in a carbon dioxide incubator. Then a test compound (each 0.05 ml) was added to each well, followed by incubation similarly for 72 hours. After removal of the supernatant, another medium (0.1 ml) containing medium A and 0.02% neutral red was added to the material for incubating similarly for one hour to dye the cells. The supernatant was removed, and the residue was washed once with physiological Saline. Then the dyestuff was removed by using an aqueous solution of ethanol (30%) containing 0.001N hydrochloric acid.
The absorptivity at 550 nm of the material was measured by the use of a microplate reader. The absorptivity of the treated cells was compared with the absorptivity of untreated cells to measure the IC50 value viz. the concentration of the test compound required to inhibit the growth of the cells by 50%.

[11] = Solubility in various solvents; type: physicochemical; settings: for Solubility in various solvents (soluble): organic solvents; for Solubility in various solvents (insoluble): water, n-hexane where named

CCCCC(C)/C=C(C)/C=C(\C)C(=O)NC1=CC(O)(/C=C/C=C/C=C/C(=O)NC2=C(O)CCC2=O)C2OC2C1=O (stereo not shown) [Manumycin, reference compound]
MIC [1]: 0.3 µg/mL (≈ 0.545 µM) | MIC [2]: 21 µg/mL (≈ 38.1 µM) | MIC [3]: 2.6 µg/mL (≈ 4.72 µM) | MIC [4]: > 100 µg/mL | MIC [5]: > 100 µg/mL | MIC [6]: > 100 µg/mL | MIC [7]: > 100 µg/mL | MIC [8]: > 100 µg/mL | MIC [9]: 1.3 µg/mL (≈ 2.36 µM) | IC50 [10]: 8.3 µg/mL (≈ 15.1 µM)

CCCCC(C)/C=C(\C)C(=O)NC1=CC(=O)C2OC2C1=O (stereo not shown) [UCF1-AX]
MIC [1]: 1.3 µg/mL (≈ 4.46 µM) | MIC [2]: 10 µg/mL (≈ 34.3 µM) | MIC [3]: 10 µg/mL (≈ 34.3 µM) | MIC [4]: 21 µg/mL (≈ 72.1 µM) | MIC [5]: 21 µg/mL (≈ 72.1 µM) | MIC [6]: 83 µg/mL (≈ 285 µM) | MIC [7]: 21 µg/mL (≈ 72.1 µM) | MIC [8]: 10 µg/mL (≈ 34.3 µM) | MIC [9]: 10 µg/mL (≈ 34.3 µM) | IC50 [10]: 18.9 µg/mL (≈ 64.9 µM) | Solubility in various solvents (soluble) [11]: Soluble in chloroform, methanol and diethyl ether | Solubility in various solvents (insoluble) [11]: Insoluble in water

CCCCC(C)/C=C(\C)C(=O)NC1=CC(O)(/C=C/C=C/C=C/C(=O)NC2=C(O)CCC2=O)C2OC2C1=O (stereo not shown) [UCF1-A]
MIC [1]: 10 µg/mL (≈ 19.6 µM) | MIC [2]: > 100 µg/mL | MIC [3]: 10 µg/mL (≈ 19.6 µM) | MIC [4]: > 100 µg/mL | MIC [5]: > 100 µg/mL | MIC [6]: > 100 µg/mL | MIC [7]: > 100 µg/mL | MIC [8]: > 100 µg/mL | MIC [9]: 2.6 µg/mL (≈ 5.09 µM) | IC50 [10]: 12.5 µg/mL (≈ 24.5 µM) | Solubility in various solvents (soluble) [11]: Soluble in chloroform, dimethylsulfoxide, ethyl acetate, methanol and acetone | Solubility in various solvents (insoluble) [11]: Insoluble in n-hexane and water

CCCCC(C)/C=C(C)/C=C/C(=O)NC1=CC(=O)C2OC2C1=O (stereo not shown) [UCF1-BX]
MIC [1]: 0.16 µg/mL (≈ 0.504 µM) | MIC [2]: 42 µg/mL (≈ 132 µM) | MIC [3]: 0.65 µg/mL (≈ 2.05 µM) | MIC [4]: > 100 µg/mL | MIC [5]: > 100 µg/mL | MIC [6]: 83 µg/mL (≈ 262 µM) | MIC [7]: > 100 µg/mL | MIC [8]: > 100 µg/mL | MIC [9]: 8.3 µg/mL (≈ 26.2 µM) | IC50 [10]: 7.5 µg/mL (≈ 23.6 µM) | Solubility in various solvents (soluble) [11]: Soluble in chloroform, methanol and diethyl ether | Solubility in various solvents (insoluble) [11]: Insoluble in water

CCCCC(C)/C=C(C)/C=C/C(=O)NC1=CC(O)(/C=C/C=C/C=C/C(=O)NC2=C(O)CCC2=O)C2OC2C1=O (stereo not shown) [UCF1-B]
MIC [1]: 1.3 µg/mL (≈ 2.42 µM) | MIC [2]: > 100 µg/mL | MIC [3]: 10 µg/mL (≈ 18.6 µM) | MIC [4]: > 100 µg/mL | MIC [5]: > 100 µg/mL | MIC [6]: > 100 µg/mL | MIC [7]: > 100 µg/mL | MIC [8]: > 100 µg/mL | MIC [9]: 2.6 µg/mL (≈ 4.85 µM) | IC50 [10]: 7.3 µg/mL (≈ 13.6 µM) | Solubility in various solvents (soluble) [11]: Soluble in chloroform, dimethylsulfoxide, ethyl acetate, methanol and acetone | Solubility in various solvents (insoluble) [11]: Insoluble in n-hexane and water
